Assay results as given in patent US20140234502A1, “Treatment of Produce” (Rohm and Haas Company, priority 2009, published 2014).

Tests used:
Type in all cases: in vivo, pear
Packam's Pears = assay: Firmness of Packam's pears by penetrometer after treatment, non-ambient storage and shelf life; conditions: South Africa, ambient 5 days, listed as 600
Description: (§1) Pears (Conference, William's/Bartlett, or Packam's) were harvested at maturity for long storage. Number of fruits and replicates were selected according to the size of the chamber in which to apply 1-MCP and according to the statistical design. Airtight containers in the range of 1 cubic meter were used for the application of both 1-MCP and ethylene. 1-MCP was released from SmartFresh™ powder that contained 0.14% 1-MCP by weight (obtained from AgroFresh, Inc.). The amount of that SmartFresh™ powder was chosen to yield the target atmospheric concentration of 1-MCP in the chosen container. For example, the 1-MCP released from 1000 mg of that SmartFresh™ powder in 1 cubic meter yielded 1-MCP concentration in the atmosphere of 625 ppb.
(§2) The chosen amount of SmartFresh™ powder was dissolved in water into a tight flask and shaken until all the powder was dissolved. The flask was then put it into the airtight container and opened, to release the 1-MCP. At the same time of the opening of the 1-MCP flask, ethylene was injected with a syringe into the airtight container. Ethylene was taken from a compressed tank at known concentration: either taken directly or released into a flask. In the latter case the concentration was measured by gas-chromatograph to determine the quantity of volume to inject into the airtight container to get the target concentration.
(§3) The exposure to atmosphere containing either 1-MCP alone or 1-MCP and ethylene was done on cold pears (already cooled down to non-ambient storage temperature) within a maximum of 7 days from harvest and lasted 24 hours. At the end of the application, the airtight container was vented for 15 minutes and the fruits were put into RA or CA storage. RA storage was at temperature of −1° C. to 1° C. and at relative humidity of 80% to 98%. CA storage had the same temperature and humidity of RA storage, had oxygen level of 1% to 3%, by volume based on the volume of the atmosphere and had carbon dioxide level of 0.5% to 2%, by volume based on the volume of the atmosphere.
In addition, samples of pears (from the same orchards from which pears treated with 1-MCP alone or 1-MCP and ethylene were harvested) were put into an airtight container for 24 hours at the temperature as the treated pears in order to reproduce the same environmental conditions. Then they were stored in the same rooms or in separated rooms in the same conditions of RA and CA as the treated pears. […]
Pears denoted with a single number (e.g., “300”) received 1-MCP treatment with that concentration, in ppb, of 1-MCP in the atmosphere (e.g., 300 ppb) and were not exposed to exogenous ethylene. […] Reported quantity is “firmness” (“F”), the penetrometer force in kgf. […]

Conference Pears [1] = assay: Inspection of Conference pears for rot, bruising and internal browning
Description: as §1, §2, §3
After RA storage, pears were exposed to ambient for the number of days shown below and then inspected for rot, bruising, and internal browning (“I.B.”). Results shown are the percentage of pears having the disorder.
Pears from SW France were examined as in Example 7, and the percent disordered fruit was as follows: […]

Conference Pears [2] = assay: Firmness of Conference pears by penetrometer after treatment, non-ambient storage and shelf life; design: key to SW France F (firmness) / Italy F (firmness) / Average F (firmness): penetrometer force in kgf (8 mm probe); conditions: for ES A F (firmness): farm ES A; for ES B F (firmness): farm ES B; for IT F (firmness): farm IT; for firmness: Example 9, CA 6 months; for Italy F (firmness) / firmness: Italy; for Orchard #1 F (firmness) / Orchard #2 F (firmness) / Orchard #3 F (firmness): Example 11, Spain, RA 3 months
Description: as §1, §2, §3
In addition, samples of pears (from the same orchards from which pears treated with 1-MCP alone or 1-MCP and ethylene were harvested) were put into an airtight container for 24 hours at the temperature as the treated pears in order to reproduce the same environmental conditions. Then they were stored in the same rooms or in separated rooms in the same conditions of RA and CA as the treated pears. These pears received no exposure to 1-MCP, exogenous ethylene, or any combination thereof, and they are labeled “control” below.
Length of non-ambient storage at present commercial temperature and storage regime was generally of 2-4 months in RA and 6 months in CA, unless otherwise specified, according to normal commercial practice.
All pears received the same progression of non-ambient storage followed by exposure to ambient conditions (“shelf life”).
Pears denoted with a single number (e.g., “300”) received 1-MCP treatment with that concentration, in ppb, of 1-MCP in the atmosphere (e.g., 300 ppb) and were not exposed to exogenous ethylene. Pears denoted with two numbers (e.g. “300+600”) were treated with both that concentration in ppb of 1-MCP and that concentration in ppb of ethylene (e.g., 300 ppb of 1-MCP and 600 ppb of ethylene). The firmness of pears was tested using commercial penetrometers with test probe of 8 mm diameter. Reported quantity is “firmness” (“F”), the penetrometer force in kgf.

Conference Pears [3] = assay: Color rating of Conference pears; conditions: ambient 5-8 days; for Italy color / SW France color: scale of 0 (green) to 5 (yellow)
Description: as §1, §2, §3
Pears were tested for firmness, as described above, and were rated for color on a scale of 0 (green) to 5 (yellow).

Conference Pears [4] = assay: Examination of Conference pears for scald; conditions: Example 9, CA 6 months; for percent with scald: Italy
Description: as §1, §2, §3
Pears from Italy (the same pears whose firmness is reported herein above in Example 5) were examined for scald after exposure to ambient conditions for the number of days shown below.

[5] = test system: Pears (Conference, William's/Bartlett, or Packam's); assay: Firmness of pears, summary over all Examples; conditions: each of the Examples; samples exposed to 1-MCP and not to ethylene
Description: as §1
The chosen amount of SmartFresh™ powder was dissolved in water into a tight flask and shaken until all the powder was dissolved. The flask was then put it into the airtight container and opened, to release the 1-MCP. […] In the latter case the concentration was measured by gas-chromatograph to determine the quantity of volume to inject into the airtight container to get the target concentration. […]
Pears denoted with a single number (e.g., “300”) received 1-MCP treatment with that concentration, in ppb, of 1-MCP in the atmosphere (e.g., 300 ppb) and were not exposed to exogenous ethylene. […] Reported quantity is “firmness” (“F”), the penetrometer force in kgf.

[6] = Example 7, RA 4 months, SW France, 13 ambient days
[7] = Example 8, CA 6 months, ambient 13 days, SW France
[8] = Example 3, RA 3 months, ambient 5 to 8 days
[9] = Example 4, CA 6 months, ambient 5 to 8 days
[10] = Example 5, RA 3 months, ambient 5-8 days
[11] = Example 6, CA 6 months, ambient 5-8 days

With `CC1=CC1` [600(C), 1-MCP] the “8 weeks F (firmness)” value (Packam's Pears; RA for 8 weeks) was 6.5 kgf, the “12 weeks F (firmness)” value (Packam's Pears; RA for 12 weeks) was 6.3 kgf and the “percentage of pears having internal browning (I.B.)” value (shortened to “percentage … (I.B.)”) (Conference Pears [1]; Example 7, RA 4 months, Loire, France, 11 ambient days) was 0 percentage. For the same compound, the “percentage … (I.B.)” value (Conference Pears [1]; Example 7, RA 4 months, Loire, France, 13 ambient days) was 0 percentage, the “percentage … (I.B.)” value (Conference Pears [1]; Example 7, RA 4 months, Loire, France, 15 ambient days) was 0 percentage and the “percentage of pears having bruising” value (Conference Pears [1]; [6]) was 0 percentage. For the same compound, the “percentage … (I.B.)” value (Conference Pears [1]; [6]) was 0 percentage, the “percentage of pears having rot” value (Conference Pears [1]; [6]) was 0 percentage and the “percent disordered fruit: I.B.” value (Conference Pears [1]; [7]) was 30%. The “percent disordered fruit: rot” value (Conference Pears [1]; [7]) was 13%, the “AV F (firmness), average of the results from the seven farms” value (Conference Pears [2]; [8]) was 5.7 kgf and the “ES A F (firmness)” value (Conference Pears [2]; [8]) was 6.3 kgf. For the same compound, the “ES B F (firmness)” value (Conference Pears [2]; [8]) was 6.3 kgf, the “FR A F (firmness)” value (Conference Pears [2]; Example 3, RA 3 months, ambient 5 to 8 days, farm FR A) was 5.4 kgf and the “FR B F (firmness)” value (Conference Pears [2]; Example 3, RA 3 months, ambient 5 to 8 days, farm FR B) was 5.2 kgf. For the same compound, the “IT F (firmness)” value (Conference Pears [2]; [8]) was 5.7 kgf, the “NL A F (firmness)” value (Conference Pears [2]; Example 3, RA 3 months, ambient 5 to 8 days, farm NL A) was 5.3 kgf and the “NL B F (firmness)” value (Conference Pears [2]; Example 3, RA 3 months, ambient 5 to 8 days, farm NL B) was 5.6 kgf. For the same compound, the “Av F (firmness), average of the results from the six farms” value (Conference Pears [2]; [9]) was 5.4 kgf, the “ES A F (firmness)” value (Conference Pears [2]; [9]) was 6.1 kgf and the “ES B F (firmness)” value (Conference Pears [2]; [9]) was 5.6 kgf. The “FR F (firmness)” value (Conference Pears [2]; Example 4, CA 6 months, ambient 5 to 8 days, farm FR) was 5.1 kgf, the “IT F (firmness)” value (Conference Pears [2]; [9]) was 4.9 kgf and the “NL A F (firmness)” value (Conference Pears [2]; Example 4, CA 6 months, ambient 5 to 8 days, farm NL A) was 5.1 kgf. The “NL B F (firmness)” value (Conference Pears [2]; Example 4, CA 6 months, ambient 5 to 8 days, farm NL B) was 5.7 kgf, the “Italy F (firmness)” value (Conference Pears [2]; [10]) was 5.7 and the “SW France F (firmness)” value (Conference Pears [2]; [10]) was 5.2. The “Italy F (firmness)” value (Conference Pears [2]; [11]) was 4.9, the “SW France F (firmness)” value (Conference Pears [2]; [11]) was 5.1 and the “Average F (firmness)” value (Conference Pears [2]; Example 6, CA 6 months, ambient 5-8 days, average of SW France and Italy) was 5.0. For the same compound, the firmness (Conference Pears [2]; 0 ambient days) was 6.8 kgf, the firmness (Conference Pears [2]; 7 ambient days) was 4.9 kgf and the “Average F (firmness), average of the two orchards” value (Conference Pears [2]; Example 10, RA 3 months, ambient 5 days) was 5.58 kgf. The “NL A F (firmness)” value (Conference Pears [2]; Example 10, RA 3 months, ambient 5 days, NL A) was 5.65 kgf, the “NL B F (firmness)” value (Conference Pears [2]; Example 10, RA 3 months, ambient 5 days, NL B) was 5.52 kgf and the “Orchard #1 F (firmness)” value (Conference Pears [2]; 0 days ambient) was 5.95 kgf. For the same compound, the “Orchard #2 F (firmness)” value (Conference Pears [2]; 0 days ambient) was 6.07 kgf, the “Orchard #3 F (firmness)” value (Conference Pears [2]; 0 days ambient) was 6.46 kgf and the “Orchard #1 F (firmness)” value (Conference Pears [2]; 7 days ambient) was 5.95 kgf. For the same compound, the “Orchard #2 F (firmness)” value (Conference Pears [2]; 7 days ambient) was 6.03 kgf, the “Orchard #3 F (firmness)” value (Conference Pears [2]; 7 days ambient) was 6.30 kgf and the “Orchard #1 F (firmness)” value (Conference Pears [2]; 12 days ambient) was 5.75 kgf. For the same compound, the “Orchard #2 F (firmness)” value (Conference Pears [2]; 12 days ambient) was 6.17 kgf, the “Orchard #3 F (firmness)” value (Conference Pears [2]; 12 days ambient) was 6.58 kgf and the Italy color (Conference Pears [3]; Example 5, RA 3 months) was 2.1. The “SW France color” value (Conference Pears [3]; Example 5, RA 3 months) was 2.95, the Italy color (Conference Pears [3]; Example 6, CA 6 months) was 3.4 and the “SW France color” value (Conference Pears [3]; Example 6, CA 6 months) was 2.65. It also gave an Average color (Conference Pears [3]; Example 6, CA 6 months, average of SW France and Italy, scale 0 (green) to 5 (yellow)) of 3.0, a percent with scald (Conference Pears [4]; 0 ambient days) of 0% and a percent with scald (Conference Pears [4]; 7 ambient days) of 1%.
`CC1=CC1` [Sample 1-MCP, 1-MCP] was tested, and the “percentage of disorders (in words)” value (Conference Pears [1]; Example 7, RA 4 months) was “lower percentage of disorders than the control pears”, the “diseased fruits (in words)” value (Conference Pears [1]; Example 8, CA 6 months, ambient 13 days) was “fewer diseased fruits that the control sample” and the “resistance to deterioration (in words)” value (Conference Pears [1]; Examples 7, 8, and 9) was “showed resistance to deterioration”. For the same compound, the “firmness (in words)” value [5] was “undesirably high”, the “color rating (in words)” value (Conference Pears [3]; Example 6, CA 6 months, on average) was “undesirably too green color rating” and the “pears with scald (in words)” value (Conference Pears [4]) was “fewer pears with scald than the control group”.
